Patent publication US10604473B2, “Lipids that increase insulin sensitivity and methods of using the same” (Beth Israel Deaconess Medical Center, Inc., priority 2013, dated 2020)
One block for each molecule: values may come before it.

Columns and labels:
[1] = test system: STC-1 cells; test: ERK phosphorylation in STC-1 cells (immunoblot); assay type: cell-based; conditions: 15 minutes stimulation
Description: For the experiments summarized in FIG. 40, STC-1 cells were incubated with 9-PAHSA, 5-PAHSA or 9-OAHSA at the indicated concentrations. Cells were harvested and lysed and proteins were separated by SDS PAGE and transferred onto nitrocellulose filters. The phosphorylation of ERK and the amount of total ERK was determined by immunoblotting with antibodies specific for total or phosphor-ERK. DMSO was the control. For ERK phosphorylation, cells were serum deprived overnight and stimulated with FAHFAs or vehicle as indicated for 15 minutes followed by lysis in RIPA buffer and analysis by SDS-PAGE

[2] = test system: STC-1 cells; test: GLP-1 secretion from STC-1 enteroendocrine cells (ELISA); assay type: cell-based
Description: For the experiments summarized in FIG. 41 STC-1 cells were incubated with vehicle (DMSO), 9-PAHSA, 5-PAHSA or 9-OAHSA at the indicated concentrations or lineolic acid (100 uM) as a positive control. Media was harvested and GLP-1 was measured by ELISA.
For the experiments summarized in FIG. 42, the same protocol as described for FIG. 41 was used, except in this experiment a time course was performed. For both FIG. 41 and FIG. 42, for GLP-1 secretion STC1 cells were washed 3× with serum free culture media followed by stimulation with FAHFAs or vehicle at the indicated concentrations and timepoints. Levels of active GLP-1 were measured by ELISA.

[3] = FAHFA biosynthesis (FA-CoA:HFA acyltransferase) assay in tissue lysates; assay type: biochemical; conditions: 9-HSA and oleoyl-CoA 10 μM, increasing doses of inhibitor
Description: After first establishing that FA-CoA:HFA acyltransferase activity was membrane-localized in liver (not shown), membrane fractions from liver or WAT tissue lysate were isolated by ultracentrifugation, then resuspended the pellets in PBS buffer and diluted to 1 mg/ml protein concentration. […] Formation of 9-OAHSA was measured by MS/MS, with which the appearance of the parent ion m/z 563 was monitored.
In light of the above results acyltransferase families that have been reported to have a membrane-bound localization and to have the ability to conjugate FA-CoA to a hydrophobic alcohol were targeted. Two of the enzymes, DGAT1 and ACAT, had selective inhibitors that were commercially available, A922500 [20] and CI976 [21], which were used to test their ability to reduce FAHFA production in the biosynthesis assay (inhibitors purchased from Tocris Bioscience).

[4] = FAHFA hydrolysis assay (9-PAHSA to 9-HSA), liver lysate
[5] = FAHFA hydrolysis assay, pancreas membrane lysate; assay type: biochemical
[6] = test system: carboxyl ester lipase (CEL); test: FAHFA hydrolysis assay, CEL-transfected HEK293T cell lysate; assay type: biochemical
[7] = test system: 3T3-L1 adipocytes; test: Glucose transport in 3T3-L1 adipocytes; assay type: cell-based; conditions: chronic treatment
Description: FIGS. 54A-D show glucose uptake regulation by PAHSAs and Glut4 translocation via GPR120. FIG. 54A is a bar graph showing insulin-stimulated glucose transport in 3T3-L1 adipocytes treated 9-PAHSA (20 μM) or vehicle (DMSO) control for 6 days. n=6 per group, *p<0.05 compared to vehicle by t-test. FIG. 54B is a bar graph showing insulin (10 nM)-stimulated glucose transport in 3T3-L1 adipocytes transfected with control siRNA or GPR120 siRNA and treated 5-PAHSA (10 μM), 9-PAHSA (10 μM) or vehicle (DMSO) control for 2 days. n=3 per group, *p<0.05 compared to DMSO+control siRNA or GPR120 siRNA alone, $p<0.05 compared to control siRNA or GPR120 siRNA+insulin and GPR120 siRNA+insulin+PAHSA by t-test. FIG. 54C is a panel showing Glut4 plasma membrane translocation in 3T3-L1 adipocytes transfected with control siRNA or GPR120 siRNA and treated with 9-PAHSA in the presence or absence of insulin. 6 separate experiments were carried out without RNAi and 3 experiments with RNAi; each experiment had greater than 50 cells per experimental condition. FIG. 54D is a bar graph showing quantification of Glut4 translocation in panel C. *p<0.05 compared to control siRNA+insulin and GPR120 siRNA+insulin+9-PAHSA by t-test. All data are presented as mean±s.e.m. See also FIG. 57.
For all cell culture experiments, FAHFAs were solubilized in DMSO at a concentration of 20 mM and further diluted in assay buffer or cell culture media to the working concentrations indicated for each assay. In all instances an equivalent volume of vehicle (DMSO) was added to control treatment groups.

SMILES: CCCCCCCC/C=C\CCCCCCCC(=O)OC(CCCCCCCCC)CCCCCCCC(=O)O (stereo not drawn) [9-OAHSA]
ERK phosphorylation [1]: induce ERK phosphorylation | GLP-1 secretion [2]: induce GLP-1 secretion

9-OAHSA levels (FAHFA production) [3]: no change in 9-OAHSA levels
SMILES: O=C(Nc1ccccc1)Nc1ccc(-c2ccc(C(=O)[C@@H]3CCC[C@H]3C(=O)O)cc2)cc1 [A922500]

9-OAHSA levels (FAHFA production) [3]: no change in 9-OAHSA levels
SMILES: CCCCCCCCCCC(C)(C)C(=O)Nc1c(OC)cc(OC)cc1OC [CI976]

SMILES: C[C@H](CCC(=O)NCCS(=O)(=O)O)[C@H]1CC[C@H]2[C@@H]3[C@H](O)C[C@@H]4C[C@H](O)CC[C@]4(C)[C@H]3C[C@H](O)[C@]12C [NaTC, sodium taurocholate]
bile-salt activation of FAHFA hydrolysis [4]: not enhanced | bile-salt activation of FAHFA hydrolysis [5]: markedly increased | bile-salt activation of FAHFA hydrolysis [6]: enhanced

SMILES: CCCCCCCCC(O)CCCCCCCCC(=O)O (stereo not drawn) [hydroxystearic acid]
insulin-stimulated glucose transport [7]: impaired insulin-stimulated glucose transport

SMILES: CCCCCCCCCCCCCCCC(=O)O [palmitic acid]
insulin-stimulated glucose transport [7]: impaired insulin-stimulated glucose transport
